The inhibition is the percentage by which the read-out fell short of the control. As usually defined, the IC50 is the concentration that inhibits the measured activity by half.

These results are taken from paper PMC12305494, “Discovery of PXR Antagonist MI891 and PXR Degrader MI1013 and Their Roles in Hepatic Gene Regulation” (Journal of Medicinal Chemistry, 2025).

Common to all, as to assay type: cell-based
One data set addresses T1, PXR (Homo sapiens, UniProt O75469).
T1 sequence (O75469 1-434): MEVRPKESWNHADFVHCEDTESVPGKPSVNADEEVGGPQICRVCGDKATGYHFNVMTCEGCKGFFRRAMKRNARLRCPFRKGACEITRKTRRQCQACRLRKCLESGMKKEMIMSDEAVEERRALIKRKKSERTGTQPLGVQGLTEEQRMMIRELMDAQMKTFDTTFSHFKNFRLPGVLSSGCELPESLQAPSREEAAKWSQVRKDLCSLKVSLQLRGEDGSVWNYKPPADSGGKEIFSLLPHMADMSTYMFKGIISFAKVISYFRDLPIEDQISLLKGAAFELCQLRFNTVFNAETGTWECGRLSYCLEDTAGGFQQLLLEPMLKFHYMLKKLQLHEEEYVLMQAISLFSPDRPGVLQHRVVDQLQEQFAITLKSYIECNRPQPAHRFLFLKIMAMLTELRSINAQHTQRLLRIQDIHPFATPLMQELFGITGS
The data set is described as follows: PXR-responsive CYP3A4 promoter luciferase reporter assay in HepG2, inverse agonist mode (basal activity). Details: expressed in transfected cells; host or cells: HepG2. Conditions: for PXR inverse agonism: decrease of basal activity in %: tested at 10 μM, DMSO (0.1%) = 100% basal activity. As to the method:
(§1) Rhesus monkey, mouse, and rat PXR expression vectors (100 ng/well each) were also obtained from GenScript. […] Carlberg (University of Kuopio, Kuopio, Finland).
(§2) The cells were cultured in DMEM medium (Merck) supplemented with 10% fetal bovine serum.
(In general: Reporter assays use an easily measured gene product as a stand-in for the process of interest.)

In another data set the target is T2, CAR3 variant (Homo sapiens, UniProt Q14994, DEL233-236).
T2 construct: expressed in transfected cells
T2 sequence (Q14994 with tags, fused parts or gaps isoform Q14994-8 DEL233-236): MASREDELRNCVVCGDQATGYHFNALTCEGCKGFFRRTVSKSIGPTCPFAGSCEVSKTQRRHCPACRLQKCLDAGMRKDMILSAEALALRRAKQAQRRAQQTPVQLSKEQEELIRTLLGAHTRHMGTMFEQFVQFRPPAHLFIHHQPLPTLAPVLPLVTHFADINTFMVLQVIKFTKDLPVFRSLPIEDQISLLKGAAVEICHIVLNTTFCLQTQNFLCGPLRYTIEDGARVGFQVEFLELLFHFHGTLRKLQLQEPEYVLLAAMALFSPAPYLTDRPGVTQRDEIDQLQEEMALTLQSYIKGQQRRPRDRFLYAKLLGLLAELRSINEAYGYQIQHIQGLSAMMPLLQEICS
T2 sequence (P19793 whole entry partner): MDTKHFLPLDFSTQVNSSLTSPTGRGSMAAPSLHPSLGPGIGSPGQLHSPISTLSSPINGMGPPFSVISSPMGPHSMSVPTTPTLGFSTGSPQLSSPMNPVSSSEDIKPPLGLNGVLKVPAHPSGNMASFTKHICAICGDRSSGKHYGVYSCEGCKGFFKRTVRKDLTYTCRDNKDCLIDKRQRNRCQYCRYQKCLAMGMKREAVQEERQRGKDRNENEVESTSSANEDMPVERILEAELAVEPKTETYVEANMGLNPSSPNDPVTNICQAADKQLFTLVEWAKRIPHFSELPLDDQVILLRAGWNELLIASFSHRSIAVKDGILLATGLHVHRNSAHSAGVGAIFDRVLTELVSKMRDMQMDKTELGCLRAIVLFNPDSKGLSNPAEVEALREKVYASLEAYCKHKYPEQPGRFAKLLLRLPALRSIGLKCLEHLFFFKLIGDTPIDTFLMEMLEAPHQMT
The data set is described as follows: CAR3 variant luciferase reporter assay. To be noted: at concentrations up to 10 μM. Here is the method: as §1, §2

The next data set concerns the target T3, LXRβ (Homo sapiens, UniProt P55055).
T3 construct: expressed in transfected cells
Description: LXRβ luciferase reporter assay, agonistic and antagonistic setups. Conditions: prototype ligand GW3965. As to the method: For the farnesoid X receptor (FXR) luciferase gene reporter assay, the full-length expression vector was paired with pFXRE-luc luciferase construct. The p1A1-luc construct was used in the aryl hydrocarbon receptor (AhR) assays with pRL-TK for normalization. Gal4-LXR-α/β, and Gal4-PPAR-γ constructs were used with the pGAL4 UAS-luc construct. For the VDR assay, expression vector pSG5-hVDR together with pVDRE-luc constructs was used. Firefly and Renilla luciferase activities were analyzed using a Dual reporter assay (Promega). For the nuclear receptor assays, prototype ligands were used at the following concentrations: Calcitriol for VDR (100 nM), GW3965 for LXRα and LXRβ (10 μM), 6-OCA for FXR (1 μM), fenofibrate for PPARα (10 μM), estradiol for ERα and β (10 μM), rosiglitazone for PPARγ (10 μM), 3-MC for AhR (5 μM), and TCPOBOP for mCAR (10 μM). Detailed descriptions and protocols are detailed in our recent publication. ,

A further data set has as its target T4, GSPT1 (Homo sapiens, UniProt P15170).
T4 construct: GSPT1 protein expression in HepaRG cells treated with different concentrations of MI1013 and MI1155 for 24 h; endogenous in cells; host or cells: HepaRG
The data set is described as follows: Western blot of GSPT1 in HepaRG cells. Conditions: 24 h. As to the method: The harvested HepaRG cells were lysed in RIPA lysis buffer (Cat. no 89900, Thermo Scientific) containing Halt protease inhibitor cocktail inhibitors (Thermo Scientific). Protein concentration was measured using the Pierce BCA Protein Assay Kit (Cat. no. 23225, Thermo Scientific), samples were diluted in 4 × Laemmli sample buffer (Cat. no. 1610747, BioRad) supplemented with mercaptoethanol and heated at 95 °C for 5 min. Equal amounts of protein were loaded in 4–20% Mini-PROTEAN TGX Stain-Free Protein Gels (12 well. cat. no. 4561095 or 15 well, cat. no. 4568096, Bio-Rad), electrophorised, and transferred onto Trans-Blot Turbo Midi-size PVDF Membrane (cat. no. 1704273, Bio-Rad), and blocked with EveryBlot Blocking buffer for 10 min (cat. no. 12010020, Bio-Rad). […] Chemiluminescence signals were detected using SuperSignal West Femto Maximum Sensitivity Substrate (cat. no. 34096, Thermo Scientific) and visualized by the ChemiDoc MP Imaging system (Universal Hood III, #731BR02821, Bio-Rad), and the bands were quantified using β-actin (1:2000, recombinant rabbit conjugated monoclonal antibody (JF53-10), cat. no. MA5-32540, Invitrogen) as loading control with ImageJ (version 1.54g) software.
(A western blot detects proteins with antibodies after separation by electrophoresis.)

The next data set has as its target T5, eGFP-tagged PXR (Homo sapiens, UniProt O75469+Q96SW2).
T5 construct: host or cells: COS-1
The data set is described as follows: Fluorescence (eGFP) intensity assay in COS-1 cells. Conditions: 24 h. As to the method: COS-1 cells were transfected with 150 ng of PXR-eGFP (NR1I2_pcDNA3.1(+)-N-eGFP, GenScript Biotech) and 150 ng of CRBN (GenScript - CRBN_OHu21180D_pcDNA3.1+/C-(K)-DYK) in a 48-well plate using Lipofectamine 3000, following the manufacturer’s protocol. After 24 h, the transfected cells were treated with varying concentrations of the MI1013 compound and incubated for another 24 h. The eGFP fluorescence was then checked and imaged using the Invitrogen EVOS imaging system. Fluorescence intensity was measured using the Spark Multimode Microplate Reader (V2.2) in Fluorescence Intensity Scan Top Reading mode. The excitation wavelength was set between 440 and 500 nm, and the emission wavelength was set at 545 nm (Monochromator), with a gain of 100 and an integration time of 40 μs. Graphs were generated using GraphPad Prism.

T5 sequence (Q96SW2 whole entry, one chain of several): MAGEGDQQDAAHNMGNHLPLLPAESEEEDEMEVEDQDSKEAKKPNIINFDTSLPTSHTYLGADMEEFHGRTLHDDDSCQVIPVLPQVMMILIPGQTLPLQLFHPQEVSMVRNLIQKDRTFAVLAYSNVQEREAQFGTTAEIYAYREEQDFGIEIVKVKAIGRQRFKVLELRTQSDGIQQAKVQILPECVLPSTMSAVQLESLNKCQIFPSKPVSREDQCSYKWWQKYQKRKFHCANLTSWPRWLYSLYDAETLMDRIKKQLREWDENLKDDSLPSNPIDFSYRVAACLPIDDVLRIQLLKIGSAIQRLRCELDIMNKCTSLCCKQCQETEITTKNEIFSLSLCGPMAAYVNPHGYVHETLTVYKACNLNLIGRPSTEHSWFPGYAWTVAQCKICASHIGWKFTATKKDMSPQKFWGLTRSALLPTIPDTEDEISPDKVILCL
T3 sequence (P55055 222-460 limits assumed): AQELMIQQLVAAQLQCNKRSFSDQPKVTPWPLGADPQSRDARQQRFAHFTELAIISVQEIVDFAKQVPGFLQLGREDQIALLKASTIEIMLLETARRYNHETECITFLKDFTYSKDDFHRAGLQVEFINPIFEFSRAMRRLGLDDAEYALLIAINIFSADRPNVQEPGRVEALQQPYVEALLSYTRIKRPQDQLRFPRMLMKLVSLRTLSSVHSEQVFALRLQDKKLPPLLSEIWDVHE
T4 sequence (Q96SW2 whole entry partner): as the sequence (Q96SW2 whole entry, one chain of several) above
T4 sequence (P15170 whole entry): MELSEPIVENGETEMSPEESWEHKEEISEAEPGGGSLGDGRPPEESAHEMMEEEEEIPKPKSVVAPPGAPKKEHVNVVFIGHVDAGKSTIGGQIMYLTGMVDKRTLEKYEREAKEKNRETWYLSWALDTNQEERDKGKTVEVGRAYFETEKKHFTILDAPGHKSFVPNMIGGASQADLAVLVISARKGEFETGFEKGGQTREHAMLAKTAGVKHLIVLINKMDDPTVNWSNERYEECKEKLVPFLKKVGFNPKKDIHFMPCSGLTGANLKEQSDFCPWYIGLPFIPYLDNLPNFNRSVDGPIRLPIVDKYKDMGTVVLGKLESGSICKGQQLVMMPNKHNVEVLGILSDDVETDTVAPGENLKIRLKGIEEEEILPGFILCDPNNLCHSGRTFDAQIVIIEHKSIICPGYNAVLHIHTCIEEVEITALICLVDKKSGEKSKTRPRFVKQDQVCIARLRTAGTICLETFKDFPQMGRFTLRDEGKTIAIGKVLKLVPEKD

Take `NC(=O)c1cc(Cn2cc(-c3c(-c4ccc(Cl)cc4)nc4c(F)cc(F)cn34)nn2)ccc1Cl` [Compound 11, 2-Chloro-5-((4-(2-(4-chlorophenyl)-6,8-difluoroimidazo[1,2-a]pyridin-3-yl)-1H-1,2,3-triazol-1-yl)methyl)-benzamide]: the inhibition at 10 µM on PXR (HepG2, at 10 μM, read-out: maximal inhibition (inverse agonism)) came out at 68.8 ± 5.5%. Further, the IC50 at PXR (compound alone, HepG2, read-out: IC50, inverse agonistic activity) was 6.1 µM. In addition, the “PXR inverse agonism: decrease of basal activity in %” value at PXR is “(-68.84±5.53) %”; at PXR (listed as 11 (MI891)), “–68.84 ± 5.53%”. Also, the “activation of CAR3 variant” value at CAR3 variant is on record as “no significant activation”. Besides, the “agonistic or antagonistic activity on LXRβ” value at LXRβ is “no significant agonistic or antagonistic activities”.

Turning to “N-(4-((1-(2,5-dimethoxyphenyl)-5-methyl-1H-1,2,3-triazol-4-yl)sulfonyl)phenyl)-3-(2-(2-(2-(4-(((2-(2,6-dioxopiperidin-3-yl)-1,3-dioxoisoindolin-4-yl)amino)methyl)-1H-1,2,3-triazol-1-yl)ethoxy)ethoxy)ethoxy)propenamide [Compound 36]”, at GSPT1, the GSPT1 degradation entry is “does not degrade”. For the same compound, the “degradation of eGFP-tagged PXR (loss of fluorescence)” value on eGFP-tagged PXR is “dose-dependent degradation of eGFP-tagged PXR”.
